Results reported in patent US12624023B2, “Sulfonylurea derivatives and uses thereof” (NodThera Limited, priority 2019, dated 2026).
pIC50: −log10 of the molar value.

Experiments:
[1] = tested on: IL-1β release upon NLRP3 activation in peripheral blood mononuclear cells (PBMC); assay: PBMC IC50 determination assay (IL-1β release, LPS priming + ATP stimulation, HTRF); assay type: cell-based; conditions: PBMC from buffy coats; LPS 1 μg/ml 3 h, compound 30 min, ATP 5 mM 1 h; IL-1β by HTRF
Procedure: The compounds of the present disclosure were tested for their inhibitory activity against IL-1β release upon NLRP3 activation in peripheral blood mononuclear cells (PBMC).
PBMC were isolated from buffy coats by density gradient centrifugation on Histopaque-1077 (Sigma, cat no. 10771). Isolated cells were seeded into the wells (280,000 cells/well) of a 96-well plate and incubated for 3 h with lipopolysaccharide (LPS, 1 μg/ml diluted 1000× from a 1 mg/ml stock solution). The compounds of the present disclosure were added (a single compound per well) and the cells were incubated for 30 min. Next, the cells were stimulated with ATP (5 mM final concentration diluted 20× from a 100 mM stock solution) for 1 h and the cell culture media from the wells were collected for further analysis.
(§1) The release of IL-1β into the media was determined by quantitative detection of IL-1β in the media using HTRF®, CisBio cat. No. 62HIL1BPEH. Briefly, cell culture supernatant were dispensed directly into the assay plate containing antibodies labelled with the HTRF® donor and acceptor. A microplate spectrophotometer (BMG) was used to detect signals at 655 nm and 620 nm. The detection range of IL-1β HTRF® was 39-6500 μg/ml.

[2] = tested on: IL-1β release upon NLRP3 activation in human whole blood; assay: Whole blood (WB) assay (IL-1β release, LPS priming + ATP stimulation, HTRF); assay type: cell-based; conditions: heparin, diluted 9:5 with media, LPS 1 μg/ml 3 h, compound 30 min, ATP 5 mM 1 h, IL-1β by HTRF
Procedure: The compounds of the present disclosure were tested for their inhibitory activity against IL-1β release upon NLRP3 activation in human whole blood.
Whole blood was drawn from single healthy donors and treated with sodium heparin anticoagulant. Blood was diluted with cell culture media at a 9:5 ratio, seeded in a 96-well plate and incubated for 3 h with lipopolysaccharide (LPS, 1 μg/ml final concentration diluted 1000× from a 1 mg/ml stock solution). The compounds of the present disclosure were added (a single compound concentration per well) and the blood was incubated for 30 min. Next, the blood was stimulated with ATP (5 mM final concentration diluted 20× from a 100 mM stock solution) for 1 h and the cell culture media from the wells were collected for further analysis.
as §1, with “were diluted as appropriate to bring IL-1β levels within the HTRF® detection range ([…]) and subsequently” for “were”, “dispensed” for “dispensed directly”, “nm.” for “nm. The detection range of IL-1β HTRF® was 39-6500 μg/ml.”

CC(C)c1sc(Cl)cc1NC(=O)NS(=O)(=O)N(c1cnn(C)c1)[C@@H]1CCCN(C)C1 [Compound 60, 3-[5-Chloro-2-(propan-2-yl)thiophen-3-yl]-1-[(1-methyl-1H-pyrazol-4-yl)-[(3R)-1-methylpiperidin-3-yl]sulfamoyl]urea]
pIC50 [1]: > 7.00
pIC50 [2]: > 6.00

CCc1cc(NC(=O)NS(=O)(=O)N(c2cnn(C)c2)[C@@H]2CCCN(C)C2)c(C(C)C)s1 [Compound 61, 3-[5-Ethyl-2-(propan-2-yl)thiophen-3-yl]-1-[(1-methyl-1H-pyrazol-4-yl)[(3R)-1-methylpiperidin-3-yl]sulfamoyl]urea]
pIC50 [1]: > 7.00
pIC50 [2]: 5.00 to 5.52

CCc1cc(NC(=O)NS(=O)(=O)N(C[C@@H]2C[C@@H](F)CN2C)c2cnn(C)c2)c(CC)o1 [Compound 62, 1-(2,5-Diethylfuran-3-yl)-3-({[(2S,4R)-4-fluoro-1-methylpyrrolidin-2-yl]methyl}(1-methyl-1H-pyrazol-4-yl)sulfamoyl)urea]
pIC50 [1]: 6.00 to 6.30
pIC50 [2]: 5.52 to 6.00

CCc1cc(NC(=O)NS(=O)(=O)N(CCN(C)C)c2cnn(C(C)C)c2)c(CC)o1 [Compound 64, 3-(2,5-Diethylfuran-3-yl)-1-{[2-(dimethylamino)ethyl][1-(propan-2-yl)-1H-pyrazol-4-yl]sulfamoyl}urea]
pIC50 [1]: 5.30 to 6.00
pIC50 [2]: 4.70 to 5.00

CCc1cc(NC(=O)NS(=O)(=O)N(c2cnn(C)c2)C2CCOCC2)c(CC)o1 [Compound 65, 3-(2,5-Diethylfuran-3-yl)-1-[(1-methyl-1H-pyrazol-4-yl)(oxan-4-yl)sulfamoyl]-urea]
pIC50 [1]: 5.30 to 6.00
pIC50 [2]: < 4.70

Cc1cc(NC(=O)NS(=O)(=O)N(c2cnn(C)c2)[C@@H]2CCCN(C)C2)c(C(C)C)s1 [Compound 66, 1-[(1-Methyl-1H-pyrazol-4-yl)[(3R)-1-methylpiperidin-3-yl]sulfamoyl]-3-[5-methyl-2-(propan-2-yl)thiophen-3-yl]urea]
pIC50 [1]: > 7.00
pIC50 [2]: > 6.00

Cc1c(C(C)C)sc(C(C)C)c1NC(=O)NS(=O)(=O)N(c1cnn(C)c1)[C@@H]1CCCN(C)C1 [Compound 67, 1-[(1-Methyl-1H-pyrazol-4-yl)[(3R)-1-methylpiperidin-3-yl]sulfamoyl]-3-[4-methyl-2,5-bis(propan-2-yl)thiophen-3-yl]urea]
pIC50 [1]: 6.30 to 7.00
pIC50 [2]: > 6.00

CCc1cc(NC(=O)NS(=O)(=O)N(C2CCOC2)C2CCCN(C)C2)c(CC)s1 (centres unmarked) [Compound 69, 3-(2,5-Diethylthiophen-3-yl)-1-[(1-methylpiperidin-3-yl)(oxolan-3-yl)-sulfamoyl]urea]
pIC50 [1]: < 5.00
pIC50 [2]: < 4.70

CC(C)c1sc2c(c1NC(=O)NS(=O)(=O)N(c1cnn(C)c1)[C@@H]1CCCN(C)C1)CCC2 [Compound 70, 1-[(1-Methyl-1H-pyrazol-4-yl)[(3R)-1-methylpiperidin-3-yl]sulfamoyl]-3-[2-(propan-2-yl)-4H,5H,6H-cyclopenta[b]thiophen-3-yl]urea]
pIC50 [1]: 6.30 to 7.00
pIC50 [2]: > 6.00

CCc1cc(NC(=O)NS(=O)(=O)N(c2cnn(C(C)C)c2)[C@@H]2CCCN(C)C2)c(CC)o1 [Compound 71, 3-(2,5-Diethylfuran-3-yl)-1-{[(3R)-1-methylpiperidin-3-yl][1-(propan-2-yl)-1H-pyrazol-4-yl]sulfamoyl}urea]
pIC50 [1]: 6.30 to 7.00
pIC50 [2]: 5.52 to 6.00

CC(C)c1cc(NC(=O)NS(=O)(=O)N(c2cnn(C)c2)C2CCCN(C)C2)c(C(C)C)o1 (centres unmarked) [Compound 73, 3-[2,5-Bis(propan-2-yl)furan-3-yl]-1-[(1-methyl-1H-pyrazol-4-yl)(1-methylpiperidin-3-yl)sulfamoyl]urea]
pIC50 [1]: > 7.00
pIC50 [2]: > 6.00

CC(C)c1cc(NC(=O)NS(=O)(=O)N(CCN(C)C)c2cnn(C)c2)c(C(C)C)o1 [Compound 75, 3-[2,5-Bis(propan-2-yl)furan-3-yl]-1-{[2-(dimethylamino)ethyl](1-methyl-1H-pyrazol-4-yl)sulfamoyl}urea]
pIC50 [1]: 6.30 to 7.00
pIC50 [2]: 5.00 to 5.52

CC(C)c1cc(NC(=O)NS(=O)(=O)N(c2cnn(C)c2)[C@@H]2C[C@H](F)CN(C)C2)c(C(C)C)s1 [Compound 76, 3-[2,5-Bis(propan-2-yl)thiophen-3-yl]-1-{[(3R,5S)-5-fluoro-1-methylpiperidin-3-yl](1-methyl-1H-pyrazol-4-yl)sulfamoyl}urea]
pIC50 [1]: 6.30 to 7.00
pIC50 [2]: 5.00 to 5.52

CCc1sc2c(c1NC(=O)NS(=O)(=O)N(c1cnn(C)c1)C1CCCN(C)C1)CCC2 (centres unmarked) [Compound 77, 3-{2-Ethyl-4H,5H,6H-cyclopenta[b]thiophen-3-yl}-1-[(1-methyl-1H-pyrazol-4-yl)(1-methylpiperidin-3-yl)sulfamoyl]urea]
pIC50 [1]: > 7.00
pIC50 [2]: > 6.00

CCc1oc(C(C)C)cc1NC(=O)NS(=O)(=O)N(c1cnn(C)c1)C1CCCN(C)C1 (centres unmarked) [Compound 78, 3-[2-Ethyl-5-(propan-2-yl)furan-3-yl]-1-[(1-methyl-1H-pyrazol-4-yl)(1-methyl-piperidin-3-yl)sulfamoyl]urea]
pIC50 [1]: 6.00 to 6.30
pIC50 [2]: 5.52 to 6.00

CCc1cc(NC(=O)NS(=O)(=O)N(c2cnn(C)c2)C2CCCN(C)C2)c(C(C)C)o1 (centres unmarked) [Compound 79, 3-[5-Ethyl-2-(propan-2-yl)furan-3-yl]-1-[(1-methyl-1H-pyrazol-4-yl)(1-methyl-piperidin-3-yl)sulfamoyl]urea]
pIC50 [1]: > 7.00
pIC50 [2]: > 6.00

CC(C)c1sc(Cl)cc1NC(=O)NS(=O)(=O)N(c1cnn(C)c1)[C@H]1CCCN(C)C1 [Compound 80, 3-[5-Chloro-2-(propan-2-yl)thiophen-3-yl]-1-[(1-methyl-1H-pyrazol-4-yl)[(3S)-1-methylpiperidin-3-yl]sulfamoyl]urea]
pIC50 [1]: > 7.00
pIC50 [2]: > 6.00

Cc1cc(NC(=O)NS(=O)(=O)N(c2cnn(C)c2)[C@H]2CCCN(C)C2)c(C(C)C)s1 [Compound 81, 1-[(1-Methyl-1H-pyrazol-4-yl)[(3S)-1-methylpiperidin-3-yl]sulfamoyl]-3-[5-methyl-2-(propan-2-yl)thiophen-3-yl]urea]
pIC50 [1]: > 7.00
pIC50 [2]: > 6.00

CC(C)c1cc(NC(=O)NS(=O)(=O)N(c2cnn(C)c2)[C@@H]2C[C@@H](F)CN(C)C2)c(C(C)C)s1 [Compound 82, 3-[2,5-Bis(propan-2-yl)thiophen-3-yl]-1-{[(3R,5R)-5-fluoro-1-methylpiperidin-3-yl](1-methyl-1H-pyrazol-4-yl)sulfamoyl}urea]
pIC50 [1]: > 7.00
pIC50 [2]: 5.52 to 6.00

CC(C)c1cc(NC(=O)NS(=O)(=O)N(CCN(C)C)c2cnn(C(C)C)c2)c(C(C)C)o1 [Compound 83, 1-[2,5-Bis(propan-2-yl)furan-3-yl]-3-{[2-(dimethylamino)ethyl][1-(propan-2-yl)-1H-pyrazol-4-yl]sulfamoyl}urea]
pIC50 [1]: 6.30 to 7.00
pIC50 [2]: 5.52 to 6.00

CC(C)c1cc(NC(=O)NS(=O)(=O)N(c2cnn(C(C)C)c2)[C@H]2CCCN(C)C2)c(C(C)C)s1 [Compound 84, 3-[2,5-Bis(propan-2-yl)thiophen-3-yl]-1-{[(3S)-1-methylpiperidin-3-yl][1-(propan-2-yl)-1H-pyrazol-4-yl]sulfamoyl}urea]
pIC50 [1]: > 7.00
pIC50 [2]: > 6.00

CC(C)c1sc2c(c1NC(=O)NS(=O)(=O)N(c1cnn(C)c1)[C@H]1CCCN(C)C1)CCC2 [Compound 85, 1-[(1-Methyl-1H-pyrazol-4-yl)[(3S)-1-methylpiperidin-3-yl]sulfamoyl]-3-[2-(propan-2-yl)-4H,5H,6H-cyclopenta[b]thiophen-3-yl]urea]
pIC50 [1]: > 7.00
pIC50 [2]: > 6.00

CCc1sc2c(c1NC(=O)NS(=O)(=O)N(c1cnn(C)c1)C1CCCN(C)C1)CCCC2 (centres unmarked) [Compound 86, 3-(2-Ethyl-4,5,6,7-tetrahydro-1-benzothiophen-3-yl)-1-[(1-methyl-1H-pyrazol-4-yl)(1-methylpiperidin-3-yl)sulfamoyl]urea]
pIC50 [1]: 6.30 to 7.00
pIC50 [2]: 5.52 to 6.00

CCc1cc(NC(=O)NS(=O)(=O)N(c2cnn(C(C)C)c2)[C@H]2CCCN(C)C2)c(CC)o1 [Compound 87, 3-(2,5-Diethylfuran-3-yl)-1-{[(3S)-1-methylpiperidin-3-yl][1-(propan-2-yl)-1H-pyrazol-4-yl]sulfamoyl}urea]
pIC50 [1]: 6.30 to 7.00
pIC50 [2]: 5.52 to 6.00

CCc1cc(NC(=O)NS(=O)(=O)N(c2cnn(C)c2)[C@H]2CCCN(C)C2)c(C(C)C)s1 [Compound 88, 3-[5-Ethyl-2-(propan-2-yl)thiophen-3-yl]-1-[(1-methyl-1H-pyrazol-4-yl)[(3S)-1-methylpiperidin-3-yl]sulfamoyl]urea]
pIC50 [1]: > 7.00
pIC50 [2]: > 6.00
